From publication PMC4290489, “Identification of multiple salicylic acid-binding proteins using two high throughput screens” (Frontiers in Plant Science, 2015)

Experiments:
Type in all cases: binding
TPPII = target: T1, TPPII (Arabidopsis thaliana, UniProt F4JVN6); assay: UV photo-crosslinking, anti-SA immunoblot; conditions: 50 uM 4AzSA, PBS, on ice, 254 nm UV; covalent; competed by SA
T1 construct: gene TPP2; N-terminal His6 (pET28a), from E. coli
T1 sequence (F4JVN6 1-1380): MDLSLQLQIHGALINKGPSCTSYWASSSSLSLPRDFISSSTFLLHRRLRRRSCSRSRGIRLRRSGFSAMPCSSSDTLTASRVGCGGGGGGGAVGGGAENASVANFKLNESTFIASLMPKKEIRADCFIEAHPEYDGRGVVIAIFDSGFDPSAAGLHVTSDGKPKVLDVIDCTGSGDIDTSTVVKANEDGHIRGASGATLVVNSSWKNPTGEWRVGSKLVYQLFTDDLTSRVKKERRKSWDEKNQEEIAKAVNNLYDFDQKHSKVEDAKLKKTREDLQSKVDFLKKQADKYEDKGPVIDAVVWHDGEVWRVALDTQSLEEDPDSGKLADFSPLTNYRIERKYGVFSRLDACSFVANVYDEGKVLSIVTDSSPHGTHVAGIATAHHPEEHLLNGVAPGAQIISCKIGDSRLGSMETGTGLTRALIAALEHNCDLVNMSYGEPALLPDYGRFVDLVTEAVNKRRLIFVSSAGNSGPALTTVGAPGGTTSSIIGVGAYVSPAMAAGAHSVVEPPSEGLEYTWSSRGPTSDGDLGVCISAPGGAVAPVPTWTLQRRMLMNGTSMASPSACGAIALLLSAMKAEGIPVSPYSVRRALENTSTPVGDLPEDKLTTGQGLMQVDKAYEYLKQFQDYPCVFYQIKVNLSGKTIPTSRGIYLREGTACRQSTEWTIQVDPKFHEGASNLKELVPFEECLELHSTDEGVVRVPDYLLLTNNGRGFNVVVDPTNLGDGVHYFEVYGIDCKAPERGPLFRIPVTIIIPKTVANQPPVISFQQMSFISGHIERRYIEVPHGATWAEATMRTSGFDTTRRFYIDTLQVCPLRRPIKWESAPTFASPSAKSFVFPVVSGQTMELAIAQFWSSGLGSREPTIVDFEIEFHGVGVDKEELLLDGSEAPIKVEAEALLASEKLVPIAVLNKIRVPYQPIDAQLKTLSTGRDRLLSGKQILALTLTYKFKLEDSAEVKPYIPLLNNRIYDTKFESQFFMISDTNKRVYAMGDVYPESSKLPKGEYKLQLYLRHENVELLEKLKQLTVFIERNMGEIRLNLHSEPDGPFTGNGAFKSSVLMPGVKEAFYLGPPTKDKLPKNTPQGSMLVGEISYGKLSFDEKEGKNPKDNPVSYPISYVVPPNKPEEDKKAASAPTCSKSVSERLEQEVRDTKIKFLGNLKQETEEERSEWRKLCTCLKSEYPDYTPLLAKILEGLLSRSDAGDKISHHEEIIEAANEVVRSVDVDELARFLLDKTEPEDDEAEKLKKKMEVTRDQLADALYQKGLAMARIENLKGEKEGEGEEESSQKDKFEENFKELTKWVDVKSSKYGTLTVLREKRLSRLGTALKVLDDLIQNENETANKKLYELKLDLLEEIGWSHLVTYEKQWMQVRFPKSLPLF

RBCS1A [1] = target: T2, RBCS1A (Arabidopsis thaliana, UniProt P10795); assay: UV photo-crosslinking, anti-SA immunoblot; conditions: 50 uM 4AzSA, PBS, on ice, 254 nm UV; covalent; competed by SA
T2 construct: gene RBCS-1A; small subunit alone, N-terminal His6 (pET28a), from E. coli

LOX2 = target: T3, LOX2 (Arabidopsis thaliana, UniProt P38418); assay: UV photo-crosslinking, anti-SA immunoblot; conditions: 50 uM 4AzSA, PBS, on ice, 254 nm UV; covalent; competed by SA
T3 construct: N-terminal His6 (pET28a), from E. coli
T3 sequence (P38418 57-896): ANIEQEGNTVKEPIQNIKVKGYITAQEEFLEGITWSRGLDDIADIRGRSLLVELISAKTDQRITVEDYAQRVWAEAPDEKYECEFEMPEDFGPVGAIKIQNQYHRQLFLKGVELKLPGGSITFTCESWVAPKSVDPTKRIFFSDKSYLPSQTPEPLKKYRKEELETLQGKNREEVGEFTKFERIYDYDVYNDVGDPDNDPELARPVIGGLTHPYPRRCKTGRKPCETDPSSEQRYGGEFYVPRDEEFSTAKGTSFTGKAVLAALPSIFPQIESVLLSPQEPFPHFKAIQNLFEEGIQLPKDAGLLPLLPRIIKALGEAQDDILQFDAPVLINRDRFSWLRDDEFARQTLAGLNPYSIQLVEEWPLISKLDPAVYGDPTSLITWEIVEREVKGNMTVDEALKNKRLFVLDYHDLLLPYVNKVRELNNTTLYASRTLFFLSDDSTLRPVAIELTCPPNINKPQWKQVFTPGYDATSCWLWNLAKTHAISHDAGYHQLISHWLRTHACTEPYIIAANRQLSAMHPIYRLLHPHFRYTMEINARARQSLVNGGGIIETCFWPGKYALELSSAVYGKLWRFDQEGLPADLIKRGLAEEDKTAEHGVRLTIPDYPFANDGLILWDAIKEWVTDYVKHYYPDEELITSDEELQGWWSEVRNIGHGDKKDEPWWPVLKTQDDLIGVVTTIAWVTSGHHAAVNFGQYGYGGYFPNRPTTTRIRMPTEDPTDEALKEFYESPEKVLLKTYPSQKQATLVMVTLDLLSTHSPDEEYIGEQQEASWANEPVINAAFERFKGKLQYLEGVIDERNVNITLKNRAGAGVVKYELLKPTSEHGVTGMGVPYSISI

RBCS1A [2] = target: T2, RBCS1A; assay: SPR competition on 3AESA chip; competition of 4AzSA photo-crosslinking; conditions: 1-5 mM SA, HBS-EP pH 7.4 (SPR); competes with 3AESA and 4AzSA
UGE2 = target: T4, UGE2 (Arabidopsis thaliana, UniProt Q9T0A7); assay: as above; conditions: 1-5 mM SA, HBS-EP pH 7.4 (SPR); competes with 3AESA and 4AzSA
T4 construct: N-terminal His6 (pET28a), from E. coli
T4 sequence (Q9T0A7 1-350): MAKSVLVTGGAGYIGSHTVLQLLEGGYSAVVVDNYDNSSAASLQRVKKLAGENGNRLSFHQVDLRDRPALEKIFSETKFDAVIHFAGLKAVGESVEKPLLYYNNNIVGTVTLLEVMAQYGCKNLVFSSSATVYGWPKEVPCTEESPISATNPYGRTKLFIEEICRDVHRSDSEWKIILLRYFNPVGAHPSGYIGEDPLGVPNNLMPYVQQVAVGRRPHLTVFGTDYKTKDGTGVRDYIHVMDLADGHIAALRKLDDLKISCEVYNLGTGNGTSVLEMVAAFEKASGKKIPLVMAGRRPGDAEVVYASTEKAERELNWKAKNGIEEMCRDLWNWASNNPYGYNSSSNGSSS

**Q.** What does the source list for `[N-]=[N+]=Nc1ccc(C(=O)O)c(O)c1` [4AzSA]?
**A.** UV photo-crosslinking, anti-SA immunoblot (TPPII): These five proteins also bound and crosslinked to 4AzSA; UV photo-crosslinking, anti-SA immunoblot (RBCS1A [1]): bound 3AESA and crosslinked to 4AzSA in an SA-inhibitable manner, indicating that they are SABPs; UV photo-crosslinking, anti-SA immunoblot (LOX2): These five proteins also bound and crosslinked to 4AzSA

**Q.** With `O=C(O)c1ccccc1O` [SA] as the compound, how does the “SPR competition on 3AESA chip; competition of 4AzSA photo-crosslinking” value (RBCS1A [2]) read?
**A.** The value was “bound 3AESA and crosslinked to 4AzSA in an SA-inhibitable manner, indicating that they are SABPs”.

**Q.** And the “SPR competition on 3AESA chip; competition of 4AzSA photo-crosslinking” value (UGE2)?
**A.** Its value is “bound 3AESA and crosslinked to 4AzSA in an SA-inhibitable manner, indicating that they are SABPs”.
